Laboratory results published in ChEMBL document CHEMBL1156829 (Proc Natl Acad Sci U S A, 2008).
Where “and” joins values, the source holds several entries; their conditions need not be identical. Equal entries are not always repeated.

Assays:
Plasmodium falciparum [1] = assay: NOVARTIS: Inhibition of Plasmodium falciparum 3D7 (drug-susceptible) proliferation in erythrocyte-based infection assay; assay type: functional, organism-based
Plasmodium falciparum [2] = assay: NOVARTIS: Inhibition of Plasmodium falciparum W2 (drug-resistant) proliferation in erythrocyte-based infection assay; assay type: functional, organism-based; conditions: read-out: EC50
[3] = (§1) NOVARTIS: Cytotoxicity against human hepatocellular carcinoma cell line (Huh7); assay type: toxicity, cell-based, Huh-7; conditions: Huh7 cells (hepatocellular carcinoma cell line)
Huh-7 = assay: as §1; assay type: toxicity, cell-based; conditions: huh-7, read-out: CC50

Row | Structure (SMILES) | EC50 (Plasmodium falciparum [1]) | EC50 (Plasmodium falciparum [1]; Plasmodium falciparum, 3D7) [nM] | EC50 (Plasmodium falciparum [2]; Plasmodium falciparum, W2) [nM] | EC50 (Plasmodium falciparum [2]) | CC50 [3] [nM] | CC50 (Huh-7) [nM]
1 | COc1ccc(C=C2SC(Nc3ccc(F)cc3)=NC2=O)c(OC)c1 | 277 nM | 266 | 753 | 532 nM | 12200 | 12000
2 | Cc1cc(/C=C2\Sc3ccccc3N2C)[n+](C)c2ccccc12 | 90.6 nM and 39.2 nM |  | 94 | 80.2 nM | 6370 | 11500
3 | CCN1/C(=C/C=C/c2oc3ccc(-c4ccccc4)cc3[n+]2CC)Oc2ccc(-c3ccccc3)cc21 |  | > 1720 | 1060 | > 569 nM | > 10000 | 10700
4 | CCN(CC)c1ccc(C=Cc2cc[n+](Cc3ccc(F)cc3)cc2)cc1 | 417 nM | 241 | 769 | 578 nM | 5290 | > 10000
5 | CCN1/C(=C/c2ccc3cc(OC)ccc3[n+]2CC)Sc2cc(C)ccc21 | 90.7 nM | 161 |  | 275 nM and 86.2 nM | 19200 | 11700
